Columns and labels:
[1] = Particle size and zeta potential measurement (DLS) of ND-drug complexes; assay type: physicochemical; settings: for average particle size upon complexing with NDs: ND 1 mg/mL, therapeutic 0.1 mg/mL
Procedure: The particle size and zeta potential of the complexes were measured using a Zetasizer Nano (Malvern Instruments). […] ND:Purvalanol A complexes were prepared in a similar manner in 5% aqueous DMSO as described previously. […] All size measurements were performed at 25° C. at a 90° scattering angle. Mean hydrodynamic diameters were obtained via cumulative analysis of 11 measurements.

[2] = ND pulldown with UV-Vis spectrophotometric analysis of drug adsorption; assay type: physicochemical; settings: 14,000 rpm, 2 hours, 25° C.
Procedure: All samples underwent centrifugation at 14,000 rpm for 2 hours at 25° C., where the supernatant was then subsequently collected for spectroscopic scans from 200 nm to 600 nm. Drug loading concentrations were determined via ND-complex pull-down experiments which comprised of an initial absorbance reading, then a 2 hour centrifuge of all samples at 25° C. and 14000 RPM followed by a final absorbance reading. The concentration of loaded drug was then calculated by measuring the difference between the initial and final readings.

[3] = Nanodiamond-drug binding assays (UV-vis spectrophotometry, centrifugation); assay type: physicochemical; settings: UV-vis spectrophotometry and centrifugation (14000 rpm) pelleting
Procedure: The binding efficiency of therapeutics such as daunorubicin, idarubicin, and others were analyzed using UV-vis spectrophotometry, as well as centrifugation assays (SEE FIGS. 18-39). In all cases, nanodiamond-drug interactions were capable of comprehensively pelleting the therapeutics (SEE FIGS. 19, 22, 25, 28, 30, 33, 36, and 39), indicating potent adsorption which was further confirmed via spectrophotometric analysis […], […], 1-32, 34-35, and 37-38).

[4] = Desorption of drug from Nanodiamond conjugates in water and PBS; assay type: physicochemical
[5] = Dispersion in water / turbidity of drug with and without NDs; assay type: physicochemical; settings: DMSO mixtures diluted 20 fold in water to 5% DMSO; 0.1 mg/ml Purvalanol A, 1 mg/ml ND
[6] = tested on: HepG2 tissue culture cells; test: DNA fragmentation (laddering) assay; assay type: cell-based; settings: 24 hours, 10:1 ND:Purvalanol A in 5% DMSO in water, 1:10 dilution
Procedure: A 1:10 dilution of 5% DMSO in water, NDs in 5% DMSO in water (1 mg/ml), ND:Purvalanol A in 5% DMSO in water (10:1 ratio—1 mg/ml ND, 0.1 mg/ml Purvalanol A), and Purvalanol A in 5% DMSO in water (0.1 mg/ml) were added to HepG2 tissue culture cells and grown for 24 hours. The cultured cells were lysed in 500 μL lysis buffer (10 mM Tris-HCl, pH 8.0, 10 mM EDTA, 1% Triton X-100). 30-minute incubations at 37° C. followed separate RNase A and proteinase K treatment. Following phenol chloroform extraction, nuclear DNA was isolated in isopropyl alcohol and stored at −80° C. overnight. The samples were then resuspended in DEPC water following a 70% ethanol wash and electrophoresed using a 0.8% agarose gel, and finally stained with ethidium bromide.

[7] = Insulin desorption from NDs in NaOH of varying pH; assay type: physicochemical; settings: 4:1 ratio; NaOH at pH 10.5
Procedure: Determination of insulin adsorption to NDs was performed by protein detection assays before and after centrifugation. Insulin was added to a ND suspension, centrifuged at 14,000 rpm for 2 hours and the resultant solution extracted and quantified. Detection of desorbed insulin was performed by adding alkaline solutions of 1 mM NaOH, adjusted for varying pH, to samples of ND-insulin in suspension. Binding ratios were determined similar to the adsorption test.
The desorption assays were conducted in a similar manner as the adsorption assays. Aqueous solutions of FITC-labeled and standard insulin were added to ND suspensions at 5:1 and 4:1 ratios, respectively. Initial and centrifuged samples were measured, and the amount of insulin desorbed was calculated. […] Separate tests at pH 10.7 show the ND-insulin complex achieving 53.3±1.2% desorption.

[8] = 5-day insulin desorption test; assay type: physicochemical; settings: for cumulative insulin released from NDs by day 1: of total adsorbed insulin, 4:1 ratio
Procedure: Additionally, a 5-day desorption test was conducted to determine cumulative insulin release. Samples were prepared by combining NDs and insulin (4:1 ratio), centrifuging at 14,000 rpm for 2 hours and extracting the remaining solution to remove any non-adsorbed insulin. Subsequently, a 1 mM NaOH solution adjusted to pH 10.5 was added to the samples, mixed thoroughly and centrifuged after a 24-hour period to determine protein concentration utilizing a BCA assay. In addition to alkaline-mediated release, water was added to a separate set of samples. The samples were replenished with NaOH or water after each measurement for the respective conditions, and the process was repeated every 24 hours over the course of 5 days.

[9] = DLS analysis of NDs, insulin and ND-insulin (size, PDI, zeta potential); assay type: physicochemical; settings: for Average Size (μm): DLS hydrodynamic cluster size
Procedure: Hydrodynamic size and zeta potential of samples was measured with a Zetasizer Nano (Malvern Instruments, Worcestershire, United Kingdom). NDs and insulin were prepared as previously described. Briefly, the particles were suspended in buffer with corresponding pH at a concentration of 50 mg/mL. The size measurements were performed at 25° C. and at a 173° scattering angle. The mean hydrodynamic diameter was determined by cumulative analysis. The zeta potential determinations were based on electrophoretic mobility of the microparticles in the aqueous medium, which was performed using folded capillary cells in automatic mode.

[10] = tested on: RAW 264.7 macrophage cells; test: MTT cell viability assay after serum starvation; assay type: cell-based, murine; settings: serum-starved 8 hours, 24-hour recovery, 0.1 μM versus 1 μM insulin
Procedure: RAW 264.7 murine macrophages were plated in 96-well plates, serum-starved for 8 hours and then incubated for 24 hours. Post-starvation media was composed of the following conditions: DMEM, 0.1 μM insulin, 1 μM insulin, DMEM 10% FBS, approximately 0.1 μM insulin released from ND-insulin complex by NaOH at pH 10.5 (insulin present in media), resultant solution from centrifuged ND-insulin in water, ND-insulin treated with NaOH at pH 10.5 (1 μM total insulin, ND-insulin complex present in media) and ND-insulin (1 μM total insulin, ND-insulin complex present in media). Insulin released from NDs was prepared by centrifuging samples of NDs with adsorbed insulin in NaOH and extracting the resultant solution, which could be reconstituted with media to 0.1 μM insulin. In a similar fashion, water was utilized as a neutral solution for relevant desorption analysis. Methylthiazolyldiphenyl-tetrazolium bromide (MTT) solution (Sigma-Aldrich) was added corresponding to 10% of total volume, and then incubated for 3 hours. After formazan crystal formation, the media was removed and MTT solvent, 0.1N HCl in anhydrous isopropanol (Sigma-Aldrich), was added to samples to solubilize the MTT dye. Sample absorbance measurements occurred at 570 nm, accounting for background at a wavelength of 690 nm.

Insulin 1 (Ins1) = test: Quantitative RT-PCR gene expression, Ins1; assay type: cell-based, murine; settings: 3T3-L1 adipocytes; serum-starved 4 hours, 2-hour recovery; (2) 0.1 μM insulin
Procedure: (§1) RT-PCR procedures were conducted as described previously. 3T3-L1 adipocytes were plated in 6-well plates, serum-starved for 4 hours and then recovered in media solutions of DMEM, insulin, approximately 0.1 μM insulin released from ND-insulin by NaOH (pH 10.5), resultant solution from centrifuged ND-insulin in pH-neutral water, ND-insulin treated with NaOH (1 μM total insulin) and NDs with bound insulin (ND-insulin, 1 μM total insulin). Preparations of media solutions containing DMEM, insulin, NDs and NaOH were conducted in a similar fashion to those implemented for the MTT assay. RNA isolation was completed by lysing cells with TRIzol reagent (Invitrogen Corporation, Carlsbad, Calif.) and added to chloroform to obtain genetic material by centrifugation. cDNA synthesis was performed using the iScript Select cDNA Synthesis Kit (Bio-Rad, Hercules, Calif.). PCR expression of the Ins1 and Csf3/G-csf genes (Integrated DNA Technologies, Coralville, Iowa) were quantified by the MyiQ Single Color Real-Time PCR machine (Bio-Rad, Hercules, Calif.) using SYBER Green detection reagents (Quanta Biosciences, Gaithersburg, Md.). The Rpl32 gene (Integrated DNA Technologies) served as the housekeeping gene for normalization of cDNA among samples.

[11] = tested on: Granulocyte colony-stimulating factor (Csf3/G-csf); test: Quantitative RT-PCR gene expression, Csf3/G-csf; assay type: cell-based, murine; settings: 3T3-L1 adipocytes; (2) 0.1 μM insulin
Procedure: as §1

[12] = reference [38]; cited from earlier work

4-hydroxytamoxifen [4-OHT]
average particle size upon complexing with NDs [1]: 278.9 nm | mean diameter (particle size) ([1]; in 5% DMSO, not complexed): 485.1 nm | UV-Vis absorbance of supernatant before and after centrifugation (pulldown) [2]: insignificant change in the UV-Vis absorbance

COc1cccc2c1C(=O)c1c(O)c3c(c(O)c1C2=O)C[C@@](O)(C(C)=O)C[C@@H]3O[C@H]1C[C@H](N)[C@H](O)[C@H](C)O1 [DAUN, daunorubicin]
binding / adsorption between ND surface and therapeutic [3]: exceptional binding | release profile of drug desorbed from Nanodiamond conjugates [4]: drug elution is sustained over several hours

COc1cccc2c1C(=O)c1c(O)c3c(c(O)c1C2=O)C[C@@](O)(C(=O)CO)C[C@@H]3O[C@H]1C[C@H](N)[C@@H](O)[C@H](C)O1 [EPI, epirubicin]
binding / adsorption between ND surface and therapeutic [3]: exceptional binding | release profile of drug desorbed from Nanodiamond conjugates [4]: drug elution is sustained over several hours

CC(=O)[C@]1(O)Cc2c(O)c3c(c(O)c2[C@@H](O[C@H]2C[C@H](N)[C@H](O)[C@H](C)O2)C1)C(=O)c1ccccc1C3=O [IDA, idarubicin]
binding / adsorption between ND surface and therapeutic [3]: exceptional binding | release profile of drug desorbed from Nanodiamond conjugates [4]: drug elution is sustained over several hours

CC(C)[C@H](CO)Nc1nc(Nc2cccc(Cl)c2)c2ncn(C(C)C)c2n1 [Purvalanol A]
average particle size upon complexing with NDs [1]: 556 nm | turbidity after dilution in water [5]: precipitated out of solution, producing a turbid liquid | DNA fragmentation [6]: Fragmentation was evident

insulin: bovine insulin (Sigma-Aldrich)
desorption (release) of standard insulin from NDs [7]: 31.3±1.6% | amount of insulin released with NaOH relative to water ([8]; 5 days): more than 20 times | total insulin eluted from NDs by day 5 ([8]; NaOH (pH 10.5)): 45.8±3.8 wt % | cumulative insulin released from NDs by day 1 ([8]; NaOH (pH 10.5)): 32.7±1.9 wt % | total insulin eluted from NDs by day 5 ([8]; water): 2.2±1.2 wt % | cumulative insulin released from NDs by day 1 ([8]; water): 0.2±0.1 wt % | zeta potential at pH 10.5 compared with pH 7 [9]: substantially more negative | zeta potential ([9]; at both pH 7 and 10.5): negative values | PDI ([9]; pH 7): 0.97 ± 0.046 | Average Size (μm) ([9]; pH 7): 1.59 ± 0.038 μm | PDI ([9]; pH 10.5): 0.99 ± 0.011 | Average Size (μm) ([9]; pH 10.5): 2.28 ± 0.66 μm | relative viability [10]: increased viability at higher insulin concentrations | relative expression of Ins1 (Insulin 1 (Ins1)): lowest expression of Ins1 | relative expression of Csf3/G-csf [11]: comparably higher than that of Ins1 | isoelectric point [12]: approximately 5.6

Reference: patent publication US10799593B2, “Nanodiamond particle complexes” (priority 2008, dated 2020)
